# Measured values taken from patent US10774122B2, “ERG targeted therapy” (The Regents of the University of Michigan, priority 2017, dated 2020).
# Where a SMILES comes first, the peptide text is derived from it. The star is where a group is joined. Biotin = O=C1N[C@H]2[C@H](CS[C@H]2CCCCC(=O)*)N1
# Legend:
# PSMA = PSMA (Homo sapiens, UniProt Q04609); details: reported in literature; cited from earlier work
# wild-type ERG (wtERG) = molecular target: T1, wild-type ERG (wtERG) (Homo sapiens, UniProt P11308); test: Pull-down of purified recombinant proteins with biotin-peptides; type: binding; details: purified recombinant protein
# T1 construct: cDNAs encoding full-length ERG and GUS were cloned into pDEST10 vector; His; made in house; host or cells: SF9 insect cells (Bac-to-Bac baculovirus)
# Protocol: (A) Pull-down experiment was performed by incubating purified recombinant proteins and biotin-peptides. (B-C) Representative sensorgrams for both wtERG and ERG_Y373A binding to EIP1. Real-time binding was measured by immobilization of biotinylated proteins to the streptavidin biosensors and subsequent interactions with varying concentrations of synthetic peptides as indicated. (D) Steady-state analysis of real-time binding data for wtERG/ERG_Y373A and synthetic peptides. (E) Electrophoretic mobility shift assay (EMSA) for ERG and ETS binding sequence (EBS).
# HUVEC ERG = molecular target: T2, HUVEC ERG (Homo sapiens, UniProt P11308); test: Pull-down from whole cell lysates normalized for ERG levels; type: binding
# T2 construct: wild-type ERG expressed in human or murine endothelial cells; endogenous in cells; host or cells: HUVEC (human umbilical vein endothelial cells)
# VCaP ERG = molecular target: T3, VCaP ERG (Homo sapiens, UniProt P11308); test: as above; type: binding
# T3 construct: endogenous in cells; host or cells: VCaP cells (ATCC): cultured cells, lysates or extracts, or VCaP xenograft tumours in nude mice
# Protocol: (§1) Approximately 1 mg of soluble VCaP cell lysate prepared in RIPA buffer (Invitrogen) was incubated with varying amounts of biotinylated peptides for 2 hours at 4° C. HaloLink agarose beads (20 μl) were added to the peptide-lysate mixture and incubated for an additional 4 hours. Beads were then pelleted by centrifugation, washed three times in PBS-T and loaded into an SDSPAGE gel followed by Western blot analysis. Total VCaP cell lysate was loaded for positive control.
# It was then determined whether RI-EIP affects normal ERG function.
# [1] = human, in vivo; cited from earlier work
# [2] = molecular target: T4, TMPRSS2:ERG gene fusion product (endogenous ERG) (Homo sapiens, UniProt P11308); test: Biotin-peptide pull-down from VCaP cell lysates, immunoblot and mass spectrometry; type: binding; details: 53 kDa band of pull-downs, mass spectrometry
# T4 construct: endogenous in cells; host or cells: VCaP cells (ATCC): cultured cells, lysates or extracts, or VCaP xenograft tumours in nude mice
# Protocol: as §1
# The samples were treated with SDS loading buffer supplied with 10 mM DTT for 5 min at 85° C. The proteins were alkylated by adding iodoacetamide to the final concentration of 15 mM. The samples were subjected to SDS-PAGE and the whole lanes were cut out and digested with trypsin in-gel for 2 hours. […]
# The resulting spectrum files were transformed into MGF format by MSConvert software and interrogated by MASCOT 2.4 search engine using human UniProt database version 15 concatenated with reverse sequences for estimation of false discovery rate (FDR) and with a list of common contaminants. […] The peptide FDR was calculated as 2×(decoy_hits)/(target+decoy hits). Spectral counts for all detected proteins were assembled using an in-house written Python script. […]
# ERG_Y373A = ERG_Y373A (Homo sapiens, UniProt P11308, Y373A)
# ERG_Y373A, sequence (P11308 whole entry Y373A): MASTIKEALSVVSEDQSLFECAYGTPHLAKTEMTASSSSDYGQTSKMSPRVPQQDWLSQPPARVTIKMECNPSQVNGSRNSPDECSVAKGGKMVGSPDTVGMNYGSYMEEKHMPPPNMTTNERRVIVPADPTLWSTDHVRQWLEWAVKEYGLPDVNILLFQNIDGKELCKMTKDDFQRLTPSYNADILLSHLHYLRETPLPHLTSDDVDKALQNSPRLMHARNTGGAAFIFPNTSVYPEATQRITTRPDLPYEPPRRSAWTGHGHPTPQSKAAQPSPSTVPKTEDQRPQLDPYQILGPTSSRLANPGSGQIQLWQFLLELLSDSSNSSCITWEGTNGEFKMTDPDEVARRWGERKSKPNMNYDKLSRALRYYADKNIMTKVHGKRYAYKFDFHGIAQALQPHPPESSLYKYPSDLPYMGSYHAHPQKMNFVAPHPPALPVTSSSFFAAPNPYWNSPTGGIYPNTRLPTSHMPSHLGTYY
# Text: (§2) Halo fusion proteins were expressed using the TNT® SP6 High-Yield Wheat Germ kit (Promega) following the manufacturer's protocol.
# ERG [3] = molecular target: T5, ERG (Homo sapiens, UniProt P11308)
# T5 sequence (P11308 1-479): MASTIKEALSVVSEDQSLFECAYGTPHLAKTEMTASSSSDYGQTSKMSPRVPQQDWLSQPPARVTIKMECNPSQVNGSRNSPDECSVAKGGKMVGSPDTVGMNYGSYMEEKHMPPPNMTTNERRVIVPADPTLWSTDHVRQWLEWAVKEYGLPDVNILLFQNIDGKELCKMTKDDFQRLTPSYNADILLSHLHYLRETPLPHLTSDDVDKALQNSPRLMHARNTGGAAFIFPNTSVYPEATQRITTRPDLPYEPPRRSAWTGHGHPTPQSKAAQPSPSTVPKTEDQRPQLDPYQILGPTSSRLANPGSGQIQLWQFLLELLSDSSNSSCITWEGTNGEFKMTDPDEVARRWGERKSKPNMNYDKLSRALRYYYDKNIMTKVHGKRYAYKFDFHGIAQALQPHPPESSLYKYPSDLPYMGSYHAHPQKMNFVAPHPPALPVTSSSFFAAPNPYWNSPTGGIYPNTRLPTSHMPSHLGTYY
# Text: as §2
# ERG [4] = molecular target: T5, ERG; remark: listed apart in the source
# Protocol: The interaction coefficients between ERG and synthetic peptides or peptidomimetics were determined by biolayer interferometry technology using the Octet Red system (ForteBio). Purified ERG and GUS proteins were biotinylated by EZLink NHS-PEG4 Biotinylation Kit (Thermo Scientific) following the manufacturer's protocol and any unincorporated biotin was removed from the reactions with Zeba 2 ml desalt columns (Thermo). Biotinylated proteins (500 μg/ml) were then incubated with super streptavidin biosensors in binding buffer (20 mM HEPES pH 7.4, 150 mM NaCl), blocked with 10 μg/ml biocytin and washed three times in binding buffer. Peptides were serially diluted in binding buffer, mixed with the protein-coupled biosensors and peptidomimetic:protein association/dissociation was monitored for 10 min at 25° C. Nonspecific binding from the signal obtained from peptidomimetic:GUS interactions was subtracted from that of peptidomimetic:ERG interactions and baseline signal drift was controlled by monitoring immobilized ERG without peptide. Octet Red analysis software was used to analyze the data.
# GRPR = GRPR (Homo sapiens, UniProt P30550); details: Peptides 13, 775 (1992); cited from earlier work
# GRPR, sequence (P30550 whole entry, species assumed): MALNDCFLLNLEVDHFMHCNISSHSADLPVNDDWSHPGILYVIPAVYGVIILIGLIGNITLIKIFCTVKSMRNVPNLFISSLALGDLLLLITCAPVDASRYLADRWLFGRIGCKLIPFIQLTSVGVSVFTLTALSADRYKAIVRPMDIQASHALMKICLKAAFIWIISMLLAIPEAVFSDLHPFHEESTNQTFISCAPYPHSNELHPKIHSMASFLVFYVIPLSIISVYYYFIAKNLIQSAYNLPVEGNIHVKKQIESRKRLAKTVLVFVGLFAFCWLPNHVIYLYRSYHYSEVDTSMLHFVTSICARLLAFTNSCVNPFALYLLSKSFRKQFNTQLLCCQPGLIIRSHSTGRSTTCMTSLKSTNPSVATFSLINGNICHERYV
# PSMA, sequence (Q04609 whole entry): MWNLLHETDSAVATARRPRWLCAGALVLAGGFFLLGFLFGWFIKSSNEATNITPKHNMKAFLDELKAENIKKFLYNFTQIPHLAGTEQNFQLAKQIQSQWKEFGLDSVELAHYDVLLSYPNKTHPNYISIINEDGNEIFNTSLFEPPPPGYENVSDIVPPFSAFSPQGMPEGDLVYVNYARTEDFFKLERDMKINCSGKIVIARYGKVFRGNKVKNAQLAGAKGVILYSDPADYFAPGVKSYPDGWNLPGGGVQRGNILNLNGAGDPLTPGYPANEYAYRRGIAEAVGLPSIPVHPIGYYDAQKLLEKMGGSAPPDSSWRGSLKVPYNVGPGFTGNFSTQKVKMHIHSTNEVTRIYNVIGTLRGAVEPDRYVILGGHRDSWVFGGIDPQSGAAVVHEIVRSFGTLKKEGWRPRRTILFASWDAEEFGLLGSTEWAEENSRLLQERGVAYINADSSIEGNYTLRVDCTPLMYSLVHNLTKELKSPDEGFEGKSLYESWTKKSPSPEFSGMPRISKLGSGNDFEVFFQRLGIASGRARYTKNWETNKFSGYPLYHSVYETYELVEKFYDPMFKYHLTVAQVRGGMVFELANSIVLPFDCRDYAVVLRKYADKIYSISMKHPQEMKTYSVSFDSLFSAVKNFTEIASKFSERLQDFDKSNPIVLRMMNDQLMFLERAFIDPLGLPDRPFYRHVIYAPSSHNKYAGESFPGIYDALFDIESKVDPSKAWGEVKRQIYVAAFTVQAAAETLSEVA
compound,measurement,setting,value
O=C(O)CC[C@H](NC(=O)N[C@@H](CCCCN(Cc1ccc(Br)cc1)C(=O)CCOCCOCCOCCOCCOCCOCCOCCOCCOCCOCCOCCOCCNC(=O)CCCC[C@@H]1SC[C@@H]2NC(=O)N[C@@H]21)C(=O)O)C(=O)O [Analogue 3],IC50,PSMA,1.3 nM
"CC(C)C[C@H](NC(=O)[C@H](Cc1ccc(O)cc1)NC(=O)[C@@H]1CCCN1C(=O)[C@@H]1CCCN1C(=O)[C@H](CC(C)C)NC(=O)CCCC[C@@H]1SC[C@@H]2NC(=O)N[C@@H]21)C(=O)N[C@@H](Cc1ccccc1)C(=O)N[C@H](C(=O)O)[C@@H](C)O [Biotin-EIP1, Biotin-LPPYLFT] (Biotin-LPPYLFT-OH)",pull-down of wtERG,wild-type ERG (wtERG),pulled down
same,amount of cell lysate for ERG pull-down,HUVEC ERG,8 mg/mL
same,amount of cell lysate for ERG pull-down,VCaP ERG,0.25 mg/mL
"CCNC(=O)[C@@H]1CCCN1C(=O)[C@H](CCCNC(=N)N)NC(=O)[C@H](CC(C)C)NC(=O)[C@@H](CC(C)C)NC(=O)[C@H](Cc1ccc(O)cc1)NC(=O)[C@H](CO)NC(=O)[C@H](Cc1c[nH]c2ccccc12)NC(=O)[C@H](Cc1c[nH]cn1)NC(=O)[C@@H]1CCC(=O)N1 [Leuprolide, pyro-EHWSY1LRP-NHEt]",half life,[1],3 h
"CC(C)C[C@H](NC(=O)CCCC[C@@H]1SC[C@@H]2NC(=O)N[C@@H]21)C(=O)N[C@@H](CO)C(=O)N[C@@H](Cc1ccccc1)C(=O)NCC(=O)N[C@@H](CO)C(=O)N[C@@H](CC(C)C)C(=O)N1CCC[C@H]1C(=O)O [biotin-EIP2, Biotin-LSFGSLP] (Biotin-LSFGSLP-OH)",spectral counts for the ERG peptide NTGGAAFIFPNTSVYPEATQR,[2],111 spectral counts
same,interaction with ERG (Y373A),ERG_Y373A,No interaction was detected
same,interaction with ERG,ERG [3],interact strongly
"H-PYLFT-NH2 [Compound 5PT-N, NH2-PYLFT-NH2]",binding to ERG,ERG [4],most potent truncated peptides
fQWAVaHLM-OMe,affinity as GRPR antagonist,GRPR,good affinity
